# Patent publication US11773108B2, “Indene derivatives useful in treating pain and inflammation” (TARO PHARMACEUTICALS INC., priority 2018, dated 2023)
# System: rat dorsal root ganglion (DRG) cells
# Experiment: Rat dorsal root ganglion (DRG) excitability response to electrical field stimulation
# Type: cell-based
# Conditions: adult rat DRG cells, Ca5 Ca2+ indicator, six concentrations, highest typically 30 μM, read-out: Scoring: EC50, modulation of rat DRG excitability
# Procedure: Rat Dorsal Root Ganglion Excitability Response of Representative Compounds Dorsal root ganglions (DRGs) were dissected from adult rats. The tissue was processed, and cells were seeded into cell culture plates (48 center wells of one quadrant in 384-well plates) and cultured for 2 days prior to Electrical field stimulation (EFS). To visualize the neuronal excitability response, intracellular Ca^+2 transients were monitored using the Ca^+2 indicator, Ca5. Ca5 was added to the cultures 1 h prior to EFS. Representative compounds of the invention (i.e., test compounds) and reference compound, tetracaine, were added in concentration-response format encompassing six concentrations, performed in duplicate. The highest concentration tested was typically 30 μM with 1 in 3 dilutions generating the subsequent concentrations.
# Effects on DRG excitability by the test compounds and standard were evaluated using four EFS protocols as disclosed in Table 2.
# Experimental results were performed using two seperate sets of plates using separate test compound and standard dilutions, to provide n=2. In the first set of experiments, compounds were added 24 h prior to EFS to increase the possibility to also detect more long-term compound effects. In the second set of experiments the compounds were added directly prior to EFS. Excitability response to EFS was analyzed as the average fluorescence ratio (peak/baseline) change per well. All plates were evaluated using high content imaging equipment post-EFS, imaging the Ca5 background staining to detect any possibile compound-related toxic effects.
# Average response by the reference compound, tetracaine, was 4.05 μM.
row,Compound,EC50
1,"C=C1CC[C@H]2[C@H](CN)[C@@H]([C@@]3(C)Cc4cnn(Cc5ccc(F)cc5)c4C[C@@H]3CO)CC[C@]12C [Ia-18, ((5R,6S)-5-((3aS,4R,5S,7aS)-4-(aminomethyl)-7a-methyl-1-methyleneoctahydro-1H-inden-5-yl)-1-(4-fluorobenzyl)-5-methyl-4,5,6,7-tetrahydro-1H-indazol-6-yl)methanol]",< 2000 nM

# System: not listed separately
# Experiment: Metabolism by human liver microsomes
# Type: in vitro ADME
# Conditions: human liver microsomes 1 mg/mL protein, 10 μM, in the presence of NADPH, LC-MS/MS
# Procedure: Representative compounds of the invention (i.e., test compounds) and the positive control, 7-ethoxycoumarin, were prepared as stock solutions at 10 mM in DMSO and eventually diluted to 10 μM in the test plate, with an appropriate amount of acetonitrile and tris HCl buffer. Final DMSO and acetonitrile concentrations were […] and 0.5% respectively. NADPH was prepared in tris HCl buffer to a stock of 10 mM. A frozen aliquot of liver microsomes was retrieved from the freezer (−80° C.) and thawed by placing the tube on wet ice. After thawing, the tubes were gently mixed and the required amount, transferred to tris HCl buffer. Test compounds or positive control were pre-incubated, separately, for 10 minutes, with liver microsomes (1 mg/mL protein), at 37° C., in 100 mM Tris HCl at pH 7.5. After preincubation the reaction was started by adding 1 mM NADPH (pre-equilibrated to 30° C.) and the reaction allowed to proceed for 60 minutes. At 60 minutes, a 50 μL aliquot was removed and quenched with 200 uL of acetonitrile containing a mixture of internal standards (Tolbutamide (500 ng/mL) and Telmistartan (500 ng/mL)) and vortexed then centrifuged at 4000 rpm for 10 minutes (Eppendorf 5810R). The supernatant was transferred to a 96 well plate for LC-MS/MS analysis.
# An LC-MS/MS method was devised for the test compounds and the control, using a AB Sciex API 4000 system coupled to a NEXAR™ UHPLC (Shimadzu) system. Analytes were separated on a Phenomenex Kinetex C18 column (50×2.1 mm, 5 μm) using a gradient that was appropriate for each compound, at a flow rate of 1 ml/minute, utilizing a mobile phase of 0.1% formic acid in MILLI-Q™ water (A) and 0.1% formic acid in acetonitrile (B). The MS instrument was operated in positive mode (ESI+)/negative (ESI−). The multiple reaction monitoring (MRM) transition for test and control compounds was used for the LC-MS/MS analysis. MRM transitions for control compound 7-ethoxycoumarinm were Quadropole 1: 191.0, Quadropole 3:163.0, dwell time: 75 msec, using curtain gas settings of 5 V, ion-spray voltage of 5500 V, temperature of 50° C. and gas settings for nebulizer and auxiliary set to 30 and 40 psi, respectively. The interface heater was kept on. Entrance potential and collision cell exit potential were varied to tune for a specific compound.
# Using a suitable LC-MS/MS method, the percentage of drug remaining at 60 minutes ([…]) was assessed by comparing the average analyte to internal standard area ratio at 60 minutes to the average analyte to internal standard area ratio at 0 time control, as a percentage, from a 5 to 10 μL sample injection.
# According to the above assay, the test compounds listed in Table 7 below were active in the Human liver microsome assay at 10 μM and the % of drug remaining after 60 minutes (PDR60), in the presence of NADPH, was assessed by LC-MS/MS. Average PDR60 for the standard compound, 7-ethoxycoumarin was <=65% in the presence of NADPH. Scoring for the test compounds, in the presence of NADPH, was as follows: “A” represents a PDR60 of 81 to 100%, “B” represents a PDR60 of 61 to 80%, “C” represents a PDR60 of 31 to 60% and “D” represents a PDR60 of 0 to 30%.
row,Scoring: % of drug remaining after 60 minutes (PDR60),Compound
1,A (“A” represents a PDR60 of 81 to 100%),"C[C@]1([C@H]2CC[C@]3(C)C(c4ccccc4)=CC[C@H]3[C@@H]2CN)Cc2cn[nH]c2C[C@@H]1CO [Ia-6, ((5R,6S)-5-((3aS,6S,7R,7aS)-7-(aminomethyl)-3a-methyl-3-phenyl-3a,4,5,6,7,7a-hexahydro-1H-inden-6-yl)-5-methyl-4,5,6,7-tetrahydro-1H-indazol-6-yl)methanol]"
2,B (“B” represents a PDR60 of 61 to 80%),"C[C@]1([C@H]2CC[C@]3(C)c4[nH]ncc4C[C@H]3[C@@H]2CN)Cc2cn[nH]c2C[C@@H]1CO [Ia-7, ((5R,6S)-5-((4aS,5R,6S,8aS)-5-(aminomethyl)-8a-methyl-1,4,4a,5,6,7,8,8a-octahydroindeno[1,2-c]pyrazol-6-yl)-5-methyl-4,5,6,7-tetrahydro-1H-indazol-6-yl)methanol]"
3,A (“A” represents a PDR60 of 81 to 100%),"C=C1CC[C@H]2[C@H](CN)[C@@H]([C@@]3(C)Cc4cn(-c5ccc(F)cc5)nc4C[C@@H]3CO)CC[C@]12C [Ia-13, ((5R,6S)-5-((3aS,4R,5S,7aS)-4-(aminomethyl)-7a-methyl-1-methyleneoctahydro-1H-inden-5-yl)-2-(4-fluorophenyl)-5-methyl-4,5,6,7-tetrahydro-2H-indazol-6-yl)methanol]"
4,D (“D” represents a PDR60 of 0 to 30%),"C=C1CC[C@H]2[C@H](CN)[C@@H]([C@@]3(C)Cc4cnn(-c5ccc(OC)cc5)c4C[C@@H]3CO)CC[C@]12C [Ia-14, ((5R,6S)-5-((3aS,4R,5S,7aS)-4-(aminomethyl)-7a-methyl-1-methyleneoctahydro-1H-inden-5-yl)-1-(4-methoxyphenyl)-5-methyl-4,5,6,7-tetrahydro-1H-indazol-6-yl)methanol]"
5,C (“C” represents a PDR60 of 31 to 60%),"C=C1CC[C@H]2[C@H](CN)[C@@H]([C@@]3(C)Cc4cn(Cc5ccc(OC)cc5)nc4C[C@@H]3CO)CC[C@]12C [Ia-17, ((5R,6S)-5-((3aS,4R,5S,7aS)-4-(aminomethyl)-7a-methyl-1-methyleneoctahydro-1H-inden-5-yl)-2-(4-methoxybenzyl)-5-methyl-4,5,6,7-tetrahydro-2H-indazol-6-yl)methanol]"
6,B (“B” represents a PDR60 of 61 to 80%),"C=C1CC[C@H]2[C@H](CN)[C@@H]([C@@]3(C)Cc4cn(Cc5ccc(F)cc5)nc4C[C@@H]3CO)CC[C@]12C [Ia-19, ((5R,6S)-5-((3aS,4R,5S,7aS)-4-(aminomethyl)-7a-methyl-1-methyleneoctahydro-1H-inden-5-yl)-2-(4-fluorobenzyl)-5-methyl-4,5,6,7-tetrahydro-2H-indazol-6-yl)methanol]"
7,C (“C” represents a PDR60 of 31 to 60%),"C=C1CC[C@H]2[C@H](CN)[C@@H]([C@@]3(C)Cc4cn(-c5ccc(F)c(F)c5)nc4C[C@@H]3CO)CC[C@]12C [Ia-23, ((5R,6S)-5-((3aS,4R,5S,7aS)-4-(aminomethyl)-7a-methyl-1-methyleneoctahydro-1H-inden-5-yl)-2-(3,4-difluorophenyl)-5-methyl-4,5,6,7-tetrahydro-2H-indazol-6-yl)methanol]"
8,B (“B” represents a PDR60 of 61 to 80%),"C=C1CC[C@H]2[C@H](CN)[C@@H]([C@@]3(C)Cc4cn(-c5ccc(Oc6ccc(F)cc6)cc5)nc4C[C@@H]3CO)CC[C@]12C [Ia-25, ((5R,6S)-5-((3aS,4R,5S,7aS)-4-(aminomethyl)-7a-methyl-1-methyleneoctahydro-1H-inden-5-yl)-2-(4-(4-fluorophenoxy)phenyl)-5-methyl-4,5,6,7-tetrahydro-2H-indazol-6-yl)methanol]"
9,D (“D” represents a PDR60 of 0 to 30%),"C=C1CC[C@H]2[C@H](CN)[C@@H]([C@@]3(C)Cc4cnn(-c5ccc(F)cn5)c4C[C@@H]3CO)CC[C@]12C [Ia-30, ((5R,6S)-5-((3aS,4R,5S,7aS)-4-(aminomethyl)-7a-methyl-1-methyleneoctahydro-1H-inden-5-yl)-1-(5-fluoropyridin-2-yl)-5-methyl-4,5,6,7-tetrahydro-1H-indazol-6-yl)methanol]"
10,D (“D” represents a PDR60 of 0 to 30%),"C=C1CC[C@H]2[C@H](CN)[C@@H]([C@@]3(C)Cc4cnn(-c5ccccc5F)c4C[C@@H]3CO)CC[C@]12C [Ia-32, ((5R,6S)-5-((3aS,4R,5S,7aS)-4-(aminomethyl)-7a-methyl-1-methyleneoctahydro-1H-inden-5-yl)-1-(2-fluorophenyl)-5-methyl-4,5,6,7-tetrahydro-1H-indazol-6-yl)methanol]"
11,D (“D” represents a PDR60 of 0 to 30%),"C=C1CC[C@H]2[C@H](CN)[C@@H]([C@@]3(C)Cc4cnn(-c5ccc(F)cc5F)c4C[C@@H]3CO)CC[C@]12C [Ia-34, ((5R,6S)-5-((3aS,4R,5S,7aS)-4-(aminomethyl)-7a-methyl-1-methyleneoctahydro-1H-inden-5-yl)-1-(2,4-difluorophenyl)-5-methyl-4,5,6,7-tetrahydro-1H-indazol-6-yl)methanol]"
12,A (“A” represents a PDR60 of 81 to 100%),"C=C1CC[C@H]2[C@H](CN)[C@@H]([C@@]3(C)Cc4cn(C5CCC(F)(F)CC5)nc4C[C@@H]3CO)CC[C@]12C [Ia-39, ((5R,6S)-5-((3aS,4R,5S,7aS)-4-(aminomethyl)-7a-methyl-1-methyleneoctahydro-1H-inden-5-yl)-2-(4,4-difluorocyclohexyl)-5-methyl-4,5,6,7-tetrahydro-2H-indazol-6-yl)methanol]"
13,D (“D” represents a PDR60 of 0 to 30%),"C=C1CC[C@H]2[C@H](CN)[C@@H]([C@@]3(C)Cc4cnn(-c5cccc(F)c5)c4C[C@@H]3CO)CC[C@]12C [Ia-40, ((5R,6S)-5-((3aS,4R,5S,7aS)-4-(aminomethyl)-7a-methyl-1-methyleneoctahydro-1H-inden-5-yl)-1-(3-fluorophenyl)-5-methyl-4,5,6,7-tetrahydro-1H-indazol-6-yl)methanol]"
14,D (“D” represents a PDR60 of 0 to 30%),"COc1ccc(-n2ncc3c2C[C@H](CO)[C@@](C)([C@H]2CC[C@]4(C)[C@@H](C)CC[C@H]4[C@@H]2CN)C3)cc1 [Ia-49, ((5R,6S)-5-((1S,3aS,4S,5S,7aR)-4-(aminomethyl)-1,7a-dimethyloctahydro-1H-inden-5-yl)-1-(4-methoxyphenyl)-5-methyl-4,5,6,7-tetrahydro-1H-indazol-6-yl)methanol]"

# Same assay, conditions: standard compound; human liver microsomes, 10 μM, in the presence of NADPH, 60 minutes
row,Average PDR60,Compound
1,<= 65%,"CCOc1ccc2ccc(=O)oc2c1 [7-ethoxycoumarin, reference compound]"
